Data from US11192914B2, “Alkyne containing nucleotide and nucleoside therapeutic compositions and uses related thereto” (Emory University, priority 2016, dated 2021).
Read-outs that look alike come from different tables or passages of the source.

Experiments:
[1] = biological target: T1, ZIKV NS5 RdRp (Zika virus, UniProt Q32ZE1); format: biochemical; details: analog triphosphates against ZIKV NS5 RdRp
T1 construct: activity of select analog triphosphates against the ZIKV NS5 RdRp

[2] = Cytotoxicity in Vero cells (XTT); format: cell-based, African green monkey; details: African green monkey
Method: (§1) Vero cells were passaged in DMEM medium in T-75 flasks prior to use in the antiviral assay. On the day preceding the assay, the cells were split 1:2 to assure they were in exponential growth phase at the time of infection. The cells were resuspended at […] cells per well in tissue culture medium and added to flat bottom microtiter plates in a volume of […]. The plates were incubated at 37° C./5% CO2 overnight to allow for cell adherence. Separately, Zika virus was titrated in LLCMK2 cells to define the inoculum for use in the antiviral assay. Virus was diluted in DMEM medium such that the amount of virus added to each well in a volume of […] was the amount determined to achieve 85 to 95% cell killing at 5 days post-infection. Following incubation test plates were stained with XTT dye. XTT solution was prepared daily as a stock solution of 1 mg/mL in RPM11640. PMS solution was prepared at 0.15 mg/mL in PBS and stored in the dark at −20° C. XTT/PMS stock was prepared immediately before use by adding […] of PMS per mL of XTT solution. Fifty microliters of XTT/PMS was added to each well of the plate, and the plate was reincubated for 4 hours at 37° C. Plates were sealed with adhesive plate sealers ad shaken gently to mix the soluble formazan product, and the plate was read spectrophotometrically read 450/650 nm with a Molecular Devices Vmax plate reader. The raw data was collected from Softmax Pro and imported into a Microsoft Excel XLfit4 spreadsheet for analysis using four parameter curve fit calculations.

[3] = tested on: ZIKV; experiment: ZIKV infectious (cytoprotection, XTT) assay; format: cell-based, Zika virus; details: read-out: ZIKV EC50
Method: as §1

[4] = tested on: ZIKV; experiment: ZIKV infectious (cytoprotection, XTT) assay; format: cell-based; details: Zika virus
[5] = tested on: Vero cells; experiment: Cytotoxicity in Vero cells (XTT); format: cell-based, African green monkey
Method: as §1

[6] = tested on: DENV2 New Guinea C; experiment: Anti-Dengue virus cytoprotection assay; format: cell-based, Dengue virus type 2
Method: Cell Preparation—BHK21 cells (Syrian golden hamster kidney cells, ATCC catalog #CCL-I 0), Vero cells (African green monkey kidney cells, ATCC catalog #CCL-81), or Huh-7 cells (human hepatocyte carcinoma) were passaged in DMEM supplemented with 10% FBS, 2 mM L-glutamine, 100 U/mL penicillin, and 100 μg/mL streptomycin in T-75 flasks prior to use in the antiviral assay. On the day preceding the assay, the cells were split 1:2 to assure they were in an exponential growth phase at the time of infection. Total cell and viability quantification was performed using a hemocytometer and Trypan Blue dye exclusion. Cell viability was greater than 95% for the cells to be utilized in the assay. The cells were resuspended at 3×10^3 ([…] for Vero cells and Huh-7 cells) cells per well in tissue culture medium and added to flat bottom microtiter plates in a volume of 100 μL. The plates were incubated at 37° C./5% CO2 overnight to allow for cell adherence.
Virus Preparation—The Dengue virus type 2 New Guinea C strain was obtained from ATCC (catalog #VR-1584) and was grown in LLC-MK2 (Rhesus monkey kidney cells; catalog #CCL-7.1) cells for the production of stock virus pools. An aliquot of virus pretitered in BHK21 cells was removed from the freezer (−80° C.) and allowed to thaw slowly to room temperature in a biological safety cabinet. Virus was resuspended and diluted into assay medium (DMEM supplemented with 2% heat-inactivated FBS, 2 mM L-glutamine, 100 U/mL penicillin, and 100 μg/mL streptomycin) such that the amount of virus added to each well in a volume of 100 μL was the amount determined to yield 85 to 95% cell killing at 6 days post-infection.
Plate Format—Each plate contains cell control wells (cells only), virus control wells (cells plus virus), triplicate drug toxicity wells per compound (cells plus drug only), as well as triplicate experimental wells (drug plus cells plus virus).
Efficacy and Toxicity XTT-Following incubation at 37° C. in a 5% CO2 incubator, the test plates were stained with the tetrazolium dye XTT (2,3-bis(2-methoxy-4-nitro-5-sulfophenyl)-5-[(phenylamino)carbonyl]-2H-tetrazolium hydroxide). XTT-tetrazolium was metabolized by the mitochondrial enzymes of metabolically active cells to a soluble formazan product, allowing rapid quantitative analysis of the inhibition of virus-induced cell killing by antiviral test substances. XTT solution was prepared daily as a stock of 1 mg/mL in RPMI 1640. Phenazine methosulfate (PMS) solution was prepared at 0.15 mg/mL in PBS and stored in the dark at −20° C. XTT/PMS stock was prepared immediately before use by adding 40 μL of PMS per ml of XTT solution. Fifty microliters of XTT/PMS was added to each well of the plate and the plate was reincubated for 4 hours at 37° C. Plates were sealed with adhesive plate sealers and shaken gently or inverted several times to mix the soluble formazan product and the plate was read spectrophotometrically at 450/650 nm with a Molecular Devices Vmax plate reader.
Data Analysis —Raw data was collected from the Softmax Pro 4.6 software and imported into a Microsoft Excel spreadsheet for analysis. The percent reduction in viral cytopathic effect compared to the untreated virus controls was calculated for each compound. The percent cell control value was calculated for each compound comparing the drug treated uninfected cells to the uninfected cells in medium alone.

[7] = tested on: HRV-26; experiment: Human rhinovirus assay (HRV-26); format: cell-based; details: Human rhinovirus sp., HRV26; Cell Line HeLa
[8] = tested on: C#CC1(O)C(O)[C@@H](COP(=O)(O)OP(=O)(O)OP(=O)(O)O)O[C@H]1n1cnc2c(N)ncnc21; experiment: purified protein, by the assay type
[9] = tested on: CC1(O)C(O)[C@@H](COP(=O)(O)OP(=O)(O)OP(=O)(O)O)O[C@H]1n1ccc(N)nc1=O; experiment: purified protein, by the assay type
[10] = tested on: C#CC1(O)C(O)[C@@H](COP(=O)(O)OP(=O)(O)OP(=O)(O)O)O[C@H]1n1ccc(=O)[nH]c1=O; experiment: purified protein, by the assay type
[11] = tested on: CC1(O)C(O)[C@@H](COP(=O)(O)OP(=O)(O)OP(=O)(O)O)O[C@H]1n1cnc2c(=O)[nH]c(N)nc21; experiment: purified protein, by the assay type
[12] = tested on: CC1(O)C(O)[C@@H](COP(=O)(O)OP(=O)(O)OP(=O)(O)O)O[C@H]1n1cnc2c(N)ncnc21; experiment: purified protein, by the assay type
[13] = tested on: CC1(O)C(O)[C@@H](COP(=O)(O)OP(=O)(O)OP(=O)(O)O)O[C@H]1n1ccc(=O)[nH]c1=O; experiment: purified protein, by the assay type; format: biochemical, Zika virus
[14] = Zika virus, Vero, ZIKV infectious assay, Vero cells
[15] = Huh-7, Cell Line Huh-7, read-out: ZIKV EC50
[16] = Zika virus, Vero, Cell Line Vero

T1 sequence (Q32ZE1 2517-3419): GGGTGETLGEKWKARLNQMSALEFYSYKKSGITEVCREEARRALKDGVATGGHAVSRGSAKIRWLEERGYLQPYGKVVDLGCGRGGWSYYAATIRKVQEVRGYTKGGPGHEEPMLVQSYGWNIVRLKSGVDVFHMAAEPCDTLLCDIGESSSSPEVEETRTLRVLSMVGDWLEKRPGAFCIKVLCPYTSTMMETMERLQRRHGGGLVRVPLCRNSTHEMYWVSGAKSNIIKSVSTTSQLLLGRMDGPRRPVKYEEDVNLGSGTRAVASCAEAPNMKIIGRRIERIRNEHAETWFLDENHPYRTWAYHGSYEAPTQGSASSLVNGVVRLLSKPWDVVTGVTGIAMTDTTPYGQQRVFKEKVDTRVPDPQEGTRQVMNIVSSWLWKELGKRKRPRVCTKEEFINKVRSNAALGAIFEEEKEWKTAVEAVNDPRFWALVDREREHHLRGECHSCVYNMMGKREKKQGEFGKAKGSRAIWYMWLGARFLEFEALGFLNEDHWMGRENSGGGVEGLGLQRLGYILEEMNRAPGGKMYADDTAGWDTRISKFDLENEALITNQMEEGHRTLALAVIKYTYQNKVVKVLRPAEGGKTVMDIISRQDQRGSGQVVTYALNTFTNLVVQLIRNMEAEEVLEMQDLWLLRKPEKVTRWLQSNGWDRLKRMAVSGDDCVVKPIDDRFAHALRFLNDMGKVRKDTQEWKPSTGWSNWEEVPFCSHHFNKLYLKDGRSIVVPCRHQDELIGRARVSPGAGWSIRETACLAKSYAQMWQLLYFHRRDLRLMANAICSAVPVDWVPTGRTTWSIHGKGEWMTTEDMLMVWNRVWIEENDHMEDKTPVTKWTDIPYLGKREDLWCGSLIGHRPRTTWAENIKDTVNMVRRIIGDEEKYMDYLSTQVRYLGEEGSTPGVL

In the case of C#CC1(O)C(O)[C@@H](COP(=O)(O)OP(=O)(O)OP(=O)(O)O)O[C@H]1n1cnc2c(N)ncnc21 (some centres unmarked), the “ZIKV Polymerase Assay Discrimination” value [1] is reported as 5.
For CC1(O)C(O)[C@@H](COP(=O)(O)OP(=O)(O)OP(=O)(O)O)O[C@H]1n1ccc(N)nc1=O (some centres unmarked), the “ZIKV Polymerase Assay Discrimination” value [1] was 7.
With CC1(O)C(O)[C@@H](COP(=O)(O)OP(=O)(O)OP(=O)(O)O)O[C@H]1n1cnc2c(=O)[nH]c(N)nc21 (some centres unmarked) the “ZIKV Polymerase Assay Discrimination” value [1] was 13.
With CC1(O)C(O)[C@@H](COP(=O)(O)OP(=O)(O)OP(=O)(O)O)O[C@H]1n1ccc(=O)[nH]c1=O (some centres unmarked) the “ZIKV Polymerase Assay Discrimination” value [1] was 53.
In the case of CC1(O)C(O)[C@@H](COP(=O)(O)OP(=O)(O)OP(=O)(O)O)O[C@H]1n1cnc2c(N)ncnc21 (some centres unmarked), the “ZIKV Polymerase Assay Discrimination” value [1] is reported as 12.
In the case of C#CC1(O)C(O)[C@@H](COP(=O)(O)OP(=O)(O)OP(=O)(O)O)O[C@H]1n1ccc(=O)[nH]c1=O (some centres unmarked), the “ZIKV Polymerase Assay Discrimination” value [1] is reported as 5.
Work on C#CC1(O)C(O)[C@@H](CO)O[C@H]1n1ccc2c(N)ncnc21 (some centres unmarked) yielded a CC50 at 5 days [2] of 35.4 µM and an EC50 [3, 14] of 0.34 µM.
In the case of CC1(O)C(O)[C@@H](CO)O[C@H]1n1ccc(N)nc1=O (some centres unmarked), the CC50 at 5 days [2] is reported as 9.57 µM and the EC50 [3, 14] is reported as 0.13 µM.
CC1(O)C(O)[C@@H](CO)O[C@H]1n1cnc2c(=O)[nH]c(N)nc21 (some centres unmarked) gave a CC50 at 5 days [2] of over 100 µM and an EC50 [3, 14] of 7.23 µM.
With CC(C)(C)C(=O)OCOP(=O)(OCOC(=O)C(C)(C)C)OC[C@H]1O[C@@H](n2ccc(=O)[nH]c2=O)C(C)(O)C1O (some centres unmarked) the CC50 at 5 days [2] was 26.4 µM and the EC50 [3, 14] was 3.57 µM.
With C#C[C@@]1(O)[C@H](O)[C@@H](CO)O[C@H]1n1ccc(=O)[nH]c1=O the EC50 [4, 15] was over 100 µM and the EC50 [3, 16] was over 100 µM.
C#C[C@@]1(O)[C@H](O)[C@@H](CO)O[C@H]1n1cc(F)c(=O)[nH]c1=O gave an EC50 [4, 15] of over 100 µM.
For C#C[C@@]1(O)[C@H](O)[C@@H](CO[P@@](=O)(N[C@@H](C)C(=O)OC(C)C)Oc2ccccc2)O[C@H]1n1cc(F)c(=O)[nH]c1=O, the EC50 ([4]; Huh-7, read-out: ZIKV EC50) was 13 µM and the EC50 ([3]; Zika virus, Vero) was over 100 µM.
Compound C#CC1(O)C(O)[C@@H](COP(=O)(OCOC(=O)C(C)(C)C)OCOC(=O)C(C)(C)C)O[C@H]1n1cc(F)c(=O)[nH]c1=O (some centres unmarked) has an EC50 [4, 15] of 5.3 µM.
CC1(O)C(O)[C@@H](CO)O[C@H]1n1cnc2c(N)ncnc21 (some centres unmarked) [drawing 675] showed a CC50 [5] of over 100 µM and an EC50 ([3]; ZIKV infectious assay, Vero cells) of 2.46 µM.
For CC1(O)C(O)[C@@H](CO)O[C@H]1n1cnc2c(N)ncnc21 (some centres unmarked) [drawing 678], the CC50 at 5 days [2] was over 100 µM and the EC50 [3, 14] was 2.75 µM.
C#CC1(O)C(O)[C@@H](COP(=O)(OCOC(=O)C(C)(C)C)OCOC(=O)C(C)(C)C)O[C@H]1n1ccc(=O)[nH]c1=O (some centres unmarked) [drawing 679] showed a CC50 at 5 days [2] of 11 µM and an EC50 [3, 14] of 1.06 µM.
Work on C#C[C@@]1(O)[C@H](O)[C@@H](CO[P@@](=O)(N[C@@H](C)C(=O)OC(C)C)Oc2ccccc2)O[C@H]1n1ccc2c(N)ncnc21 [drawing 740] yielded an EC50 ([6]; DENV2, BHK-21, read-out: DENV2 New Guinea C EC50) of 27.7 µM.
Compound C#C[C@@]1(O)[C@H](O)[C@@H](CO)O[C@H]1n1cnc2cnc(N)nc21 [drawing 741] has an EC50 ([6]; DENV2, Vero, read-out: DENV2 New Guinea C EC50) of over 100 µM.
Compound C#C[C@@]1(O)[C@H](O)[C@@H](CO[P@@](=O)(N[C@@H](C)C(=O)OC(C)C)Oc2ccccc2)O[C@H]1n1ccc(=O)[nH]c1=O [drawing 742] has an EC50 [7] of 3.22 µM.
For C#C[C@@]1(O)[C@H](O)[C@@H](CO)O[C@H]1n1cnc2cnc(N)nc21 [drawing 743], the EC50 [7] was over 100 µM.
Work on C#C[C@@]1(O)[C@H](O)[C@@H](CO[P@@](=O)(N[C@@H](C)C(=O)OC(C)C)Oc2ccccc2)O[C@H]1n1ccc2c(N)ncnc21 [drawing 744] yielded an EC50 ([4]; Huh-7, read-out: ZIKV EC50) of 0.001 µM.
In the case of C#C[C@@]1(O)[C@H](O)[C@@H](CO[P@@](=O)(N[C@@H](C)C(=O)OC(C)C)Oc2ccccc2)O[C@H]1n1ccc(=O)[nH]c1=O [drawing 746], the EC50 ([4]; Huh-7, read-out: ZIKV EC50) is reported as 0.5 µM and the EC50 ([3]; Zika virus, Vero) is reported as over 100 µM.
For C#C[C@@]1(O)[C@H](O)[C@@H](CO)O[C@H]1n1cnc2cnc(N)nc21 [drawing 747], the EC50 ([4]; HeLa, Cell Line HeLa, read-out: ZIKV EC50) was over 100 µM.
With C#C[C@@]1(O)[C@H](O)[C@@H](CO)O[C@H]1n1cnc2cnc(N)nc21 [drawing 751] the EC50 [3, 16] was over 100 µM.
ZIKV NS5 RdRp (Zika virus) showed a Km [8] of 1.26 µM, a Km [9] of 1.45 µM and a Km [10] of 6.59 µM. It also gave a Km [11] of 2.82 µM, a Km [12] of 3.03 µM and a Km [13] of 72.82 µM.
